In patent US20260327263A1, “Anti-Bacterial Peptides” (priority 2023, published 2026):
In brackets after ≈: the same amount, converted by molar mass. Where a SMILES comes first, the peptide text is derived from it. Where no end group is shown, it is not given here. [ ]: non-standard residue; d: D form. d2Nal = N[C@H](Cc1ccc2ccccc2c1)C(=O)O

Key:
[1] = system: Pseudomonas aeruginosa (PA); experiment: Broth microdilution anti-bacterial assay (CLSI), Pseudomonas aeruginosa; type: cell-based, Pseudomonas aeruginosa (ATCC 14213)
Description: (§1) To evaluate their anti-bacterial potency, broth microdilution method as per the CLSI guidelines 1 was used. […] The anti-bacterial potency of the tested agents is quantified using minimum inhibitory concentration (MIC) and minimum bactericidal concentration (MBC). […] To obtain the MBC data, 1X, 2X and 4× MIC of the peptide variants were plated to obtain the number of viable colonies compared to the original inoculum.
(§2) Pseudomonas aeruginosa (ATCC 14213, PA), and methicillin resistant Staphylococcus aureus (BAA1717-USA 300, SA) were obtained from The American Type Culture Collection (ATCC).
(§3) Examination of the potency of modified short peptides against PA and SA strains was performed by using the broth microdilution protocol from the Clinical and Laboratory Standards Institute (CLSI) guidelines (CLSI 2012) as described. Briefly, five freshly plated bacteria colonies were grown in cation adjusted MH2 broth (BD Biosciences) in a shaker incubator at 37° C., 220 RPM. Cells were grown to an optical density (OD600) of ~0.2 measured using a Microplate Spectrophotometer (Molecular Devices Spectra Max Plus). 100 μL of microbial culture containing ~5×10^5 CFU/mL of bacteria in the respective broths were introduced into each well containing 100 μL of peptides and incubated overnight at 37° C. Next, to check the bactericidal effects, 100 μL from each well was transferred and spread on sterile MH2 agar plates. The plates were incubated overnight at 37° C. and the number of colonies forming units (CFU) were calculated the following day. Readings of bacteria grown in media without any treatments were normalized to 100% as media control. For the mixed infection study, three freshly plated bacteria colonies each from PA, SA and ST plates were grown together in cation adjusted MH2 broth and proceeded as described above.

[2] = system: Staphylococcus aureus (SA); experiment: Broth microdilution anti-bacterial assay (CLSI), Staphylococcus aureus; type: cell-based
Description: as §1, §2, §3

[3] = system: Pseudomonas aeruginosa (PA); experiment: Time-kill assay, Pseudomonas aeruginosa; type: cell-based
Description: (§4) The bactericidal abilities of the variant peptides are not only effective, but also fast-acting. […] The killing kinetics are detailed in Table 11 below.
(§5) Pseudomonas aeruginosa (PA) and Staphylococcus aureus (SA) strains were grown as per CLSI guidelines. AMPs were added to the bacterial cultures at their 1X MBC concentrations. Upon treatment, the bacterial cultures were enumerated for viable counts immediately within 1 min, 5 min, 15 min, 30 min and 60 min post-treatments.

[4] = system: Staphylococcus aureus (SA); experiment: Time-kill assay, Staphylococcus aureus; type: cell-based
Description: as §4, §5

[5] = system: human keratinocytes; experiment: 2D scratch assay, keratinocyte migration; type: cell-based; conditions: 48 h; E1AM2 3.125-12.5 μM, Q19L 3.125-6.25 μM
Description: Wound healing is directly associated with the migration speed of keratinocytes. The migration speed of human keratinocytes in presence of E1AM2, V8L (SEQ ID NO: 19), and Q19L variants is tested in comparison with pexiganan (SEQ ID NO: 54). Migration speed of human keratinocytes assessed in a 2D scratch assay at D 0 and D 2 timepoints. Decrease in wound area over time was measured by applying an ImageJ plugin ‘Wound Healing Size Tool’ on bright-field images. The change in wound area over the course of 48 hours was used as a measure of the migration speed of keratinocytes. Each value is the mean±SD (n=3). The p-value was calculated using ANOVA for multiple comparisons (Dunnett's multiple comparisons test). **** p<0.0001. *** p<0.001. ** p <0.01. * p<0.05. […] Both peptides healed wound faster within their respective MIC and MBC concentrations. […] SEQ ID NO: 27=Q19L; SEQ ID NO: 2=E1AM2; SEQ ID NO: 19=V8L.
Wound closure was compared with the untreated samples (circle, red highlight). For improved clarity, error bars have been omitted from this representation. […] Each value is the mean±SD (n=3). Statistical significance was assessed using ANOVA for multiple comparisons (Dunnett's multiple comparisons test). **** p<0.0001, *** p<0.001, ** p<0.01, *p<0.05, ns denotes nonsignificance, p >0.05.
Wound areas of the human keratinocyte culture were assessed in presence of peptides in a 2D scratch assay at the 0 hour, and 48-hour time points by applying an ImageJ plugin, ‘Wound Healing Size Tool’ on brightfield images. Quantification of wound width was calculated by obtaining the averaged Euclidean distance between each paired pixel at the lateral wound edges. The change in wound area over the course of 48 hours was used as a measure of the migration speed of keratinocytes.
Using the inverted BioTek Lionheart LX Automated Microscope, brightfield images were obtained at 4× magnification to observe the wound area at timepoints 0 (before treatment) and 48 hours-post treatment. Microscopy settings were maintained as focus offset (781.3 μm), illumination (2), integration Time (21) with no gain. To cover the entire well, montage images of four rows by three columns were stitched together by enabling the “image stitching” function and images were saved in tiff-format.

[6] = system: mixed bacterial infection (PA, SA and ST); experiment: Broth microdilution, mixed bacterial infection; type: cell-based; conditions: for MBC: mixed infection
Description: Chronic wounds mostly present mixed infections where numerous pathogens colonize together.
as §3

[7] = system: Pseudomonas aeruginosa PA BAA-2110; experiment: Broth microdilution, PA BAA-2110 (lung infection in cystic fibrosis); type: cell-based, Pseudomonas aeruginosa (BAA-2110); conditions: Pseudomonas aeruginosa, BAA2110
Description: (§6) Bacteria strains involved in lung infection in cystic fibrosis patients (PA-BAA 2110) and ear-eye infections (PA-CRM 9027) are treated with exemplary variant peptides, such as E1AM2 and Q19L.
as §3

[8] = system: Pseudomonas aeruginosa PA CRM-9027; experiment: Broth microdilution, PA CRM-9027 (ear-eye infections); type: cell-based, Pseudomonas aeruginosa (CRM-9027); conditions: Pseudomonas aeruginosa, PACRM9027
Description: as §6, §3

[9] = system: Pseudomonas aeruginosa (PA); experiment: Antimicrobial resistance evolution assay, PA; type: cell-based; conditions: serial passaging, 28 days; resistance = >4-fold MIC change
Text: The development of antimicrobial resistance is defined by greater than a 4-fold change to their initial minimum inhibitory concentration (MIC) at day 1. Exemplary bacteria strains Pseudomonas aeruginosa (PA) and Staphylococcus aureus (SA) are subjected to continuous daily serial passaging over several days, with treatment of exemplary variant peptides E1AM2 (SEQ ID NO: 2) and Q19L (SEQ ID NO: […]) at subinhibitory concentrations. […] The treatments were discontinued when the MIC increased by more than four-fold from the initial MIC or when MIC reached >100 μM.
Briefly, sequential passaging of PA, and SA cells was done with sub-inhibitory concentrations of antibiotics or E1AM2 up to 4 weeks. The cells grown in those concentrations of antibiotics or peptides were diluted to A600 nm (OD600) of ~0.2 and serially passaged daily with the same concentrations at 37° C. with agitation at 24 h intervals.

[10] = system: Pseudomonas aeruginosa (PA); experiment: Combination of peptide with antibiotics against PA; type: cell-based; conditions: with gentamicin and piperacillin
Text: In view of the results above, the peptide variants as described herein show synergistic anti-bacterial effects when used in combination with antibiotics.
In some examples, the methods described herein further comprises administering an antibiotic agent to the subject.

[11] = PA, overnight, 37° C., ≥99% inhibition
[12] = SA, overnight, 37° C., ≥99% inhibition
[13] = at 1X MBC, * indicates killing within seconds

Compound	MIC [1, 11] [µM]	MBC ([1]; PA, ≥99% killing) [µM]	MIC [2, 12] [µM]	MBC ([2]; SA, ≥99% killing) [µM]	MBC ([1]; Pseudomonas aeruginosa) [µM]	MIC ([1]; Pseudomonas aeruginosa) [µM]	MBC ([2]; Staphylococcus aureus) [µM]	MIC ([2]; Staphylococcus aureus) [µM]	MIC [6] [µM]	MBC [6] [µM]	MBC [7] [µM]	MIC [7] [µM]	MBC [8] [µM]	MIC [8] [µM]	development of antimicrobial resistance, PA [9]	other results
KKLLKKWLKLSKKALKLAQSL-NH2 [V8L]	3.125	3.125	3.125	3.125												anti-bacterial activity (in words) ([1]; PA and SA): reduction in the minimum inhibitory concentration (MIC) and minimum bactericidal concentration (MBC) values; time to kill PA (in words) ([3]; 1X MBC): within minutes; Time kill PA, >99% killing [3, 13]: 1* min; time to kill SA (in words) ([4]; 1X MBC): within minutes; Time kill SA, >99% killing [4, 13]: >30 to 60 min; migration speed of keratinocytes [5]: maintained keratinocyte migration speed
CCN1CCN(C(=O)N[C@@H](C(=O)N[C@@H]2C(=O)N3[C@@H]2SC(C)(C)[C@@H]3C(=O)O)c2ccccc2)C(=O)C1=O [Piperacillin, (2S,5R,6R)-6-{[(2R)-2-[(4-ethyl-2,3-dioxo-piperazine-1-carbonyl)amino]-2-phenyl-acetyl]amino}-3,3-dimethyl-7-oxo-4-thia-1-azabicyclo[3.2.0]heptane-2-carboxylic acid]					50 (≈ 25.9 µg/mL)	25 (≈ 12.9 µg/mL)	12.5 (≈ 6.47 µg/mL)	6.25 (≈ 3.23 µg/mL)	25 (≈ 12.9 µg/mL)	25 (≈ 12.9 µg/mL)	25 (≈ 12.9 µg/mL)	12.5 (≈ 6.47 µg/mL)	6.25 (≈ 3.23 µg/mL)	6.25 (≈ 3.23 µg/mL)	developed resistance	
CO/N=C(\C(=O)N[C@@H]1C(=O)N2C(C(=O)[O-])=C(C[N+]3(C)CCCC3)CS[C@H]12)c1csc(N)n1 [Cefepime]					25 (≈ 12 µg/mL)	12.5 (≈ 6.01 µg/mL)	25 (≈ 12 µg/mL)	12.5 (≈ 6.01 µg/mL)	12.5 (≈ 6.01 µg/mL)	12.5 (≈ 6.01 µg/mL)	25 (≈ 12 µg/mL)	12.5 (≈ 6.01 µg/mL)	1.56 (≈ 0.75 µg/mL)	1.56 (≈ 0.75 µg/mL)	developed resistance	
CC(C)C[C@@H](NC(=O)[C@@H](C)NC(=O)[C@@H](CC(C)C)NC(=O)[C@@H](CCCCN)NC(=O)[C@@H](CC(C)C)NC(=O)[C@@H](C)NC(=O)[C@@H](CCCCN)NC(=O)[C@@H](CCCCN)NC(=O)[C@@H](CO)NC(=O)[C@@H](CC(C)C)NC(=O)[C@@H](CCCCN)NC(=O)[C@@H](CC(C)C)NC(=O)[C@@H](Cc1ccc2ccccc2c1)NC(=O)[C@@H](CCCCN)NC(=O)[C@@H](CCCCN)NC(=O)[C@@H](CC(C)C)NC(=O)[C@@H](CC(C)C)NC(=O)[C@@H](CCCCN)NC(=O)[C@H](N)CCCCN)C(N)=O [E1AM2 D-W72Nal V8L Q19L C-2-NH2] (H-[dK][dK][dL][dL][dK][dK][d2Nal][dL][dK][dL][dS][dK][dK][dA][dL][dK][dL][dA][dL]-NH2)	1.56 (≈ 3.53 µg/mL)	1.56 (≈ 3.53 µg/mL)	1.56 (≈ 3.53 µg/mL)	1.56 (≈ 3.53 µg/mL)												MBC in combination with gentamicin and piperacillin [10]: reduced minimum bactericidal concentration (MBC); MIC in combination with gentamicin and piperacillin [10]: reduced minimum inhibitory concentration (MIC)
